Measured values as given in US7863248B2, “Tyrosinase activity inhibitor and ameliorant for facial blood flow” (Meiji Seika Kaisha, Ltd., priority 2003, dated 2011).

Test system: mushroom-derived tyrosinase
Experiment: Tyrosinase activity inhibition (dopachrome formation from L-dopa, absorbance at 490 nm)
Type: biochemical
Conditions: for Inhibitory Rate (%): 37° C., 30 minutes; for tyrosinase inhibitory activity compared with comparative drugs: comparison in words
Experimental: As test substances, the composition prepared in Example 1 and four types of anthocyanin crystal prepared in Example 2 were used. To a 96-well plate, 40 μl of mushroom-derived tyrosinase (125 unit/ml; dissolved in a 67 mmol/l phosphate buffer solution; […] Sigma), and 40 μl of an inhibitor solution were added. The plate was allowed to stand for 37° C. for 30 minutes. Then, the amount of dopachrome produced was determined by absorbance at 490 nm. Tyrosinase inhibitory activity was expressed as an inhibitory rate obtained by the following equation: Inhibitory Rate (%)=[([…]: absorbance at 490 nm of a control solution • B: absorbance at 490 nm of a control solution (blank solution) • C: absorbance at 490 nm of an anthocyanin solution • D: absorbance at 490 nm of an anthocyanin solution (blank solution).

Row | Compound | Inhibitory Rate (%) (inhibitor concentration 10 mM (2.7 mg/ml)) | tyrosinase inhibitory activity compared with comparative drugs | Inhibitory Rate (%) (inhibitor concentration 0.2 mM)
1 | OC[C@H]1O[C@@H](Oc2ccc(O)cc2)[C@H](O)[C@@H](O)[C@@H]1O [Arbutin, reference compound] | 10.4% |  | 
2 | OC[C@H]1O[C@@H](Oc2cc3c(O)cc(O)cc3[o+]c2-c2ccc(O)c(O)c2)[C@H](O)[C@@H](O)[C@@H]1O [C3G (Example 2), cyanidin-3-glucoside] |  | tyrosinase inhibitory activity at the same level as that found in comparative drugs such as kojic acid, arbutin | 45.0%
3 | OC[C@H]1O[C@@H](Oc2cc3c(O)cc(O)cc3[o+]c2-c2cc(O)c(O)c(O)c2)[C@H](O)[C@@H](O)[C@@H]1O [D3G (Example 2), delphinidin-3-glucoside] |  | tyrosinase inhibitory activity at the same level as that found in comparative drugs such as kojic acid, arbutin | 67.5%
4 | CC1O[C@@H](OC[C@H]2OC(Oc3cc4c(O)cc(O)cc4[o+]c3-c3cc(O)c(O)c(O)c3)[C@H](O)C(O)C2O)C(O)C(O)[C@H]1O (stereo partly shown) [D3R (Example 2), delphinidin-3-rutinoside] |  | tyrosinase inhibitory activity at the same level as that found in comparative drugs such as kojic acid, arbutin | 70.1%
5 | N[C@@H](CCC(=O)N[C@@H](CS)C(=O)NCC(=O)O)C(=O)O [Glutathione, reference compound] |  |  | 13.2%
6 | O=c1cc(CO)occ1O [Kojic Acid, reference compound] |  |  | 34.7%
7 | N[C@@H](CS)C(=O)O [L-Cysteine, reference compound] |  |  | 29.8%
